Source: PubChem BioAssay AID1919010 (Molecular Pharmacology Branch, DTP, NCI, 2023)
“And” between values parts separate entries of the source, which are not always exact repeats. Identical values can stand only once.

System: Hs578T complex spheroid growth, percent test/control
Experiment: Anticancer human tumor Hs578T cell line growth inhibition [AhR];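 note: luminescent viability signal as a proxy for spheroid growth; spheroids exposed to agents for one week after three days of growth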
Conditions: for viability, T/C: stronger effect = lower value
How it was run: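 Spheroids combined tumor cells with HUVEC endothelial cells and human MSCs as stroma. AhR antagonists were paired with standard or investigational drugs, each dosed in half-log steps down from near clinical Cmax, or from 10 microM where Cmax was unknown.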

[1] = curve of first compound, second compound 0.1 µM
[2] = curve of first compound, second compound 0.316 µM
[3] = curve of first compound, second compound 1 µM
[4] = curve of first compound, second compound 3.16 µM
[5] = curve of first compound, second compound 10 µM
[6] = second compound 0.1 µM, first compound 0.00316 µM
[7] = second compound 0.1 µM, first compound 0.01 µM
[8] = second compound 0.1 µM, first compound 0.0316 µM
[9] = second compound 0.1 µM, first compound 0.1 µM
[10] = second compound 0.316 µM, first compound 0.00316 µM
[11] = second compound 0.316 µM, first compound 0.01 µM
[12] = second compound 0.316 µM, first compound 0.0316 µM
[13] = second compound 0.316 µM, first compound 0.1 µM
[14] = second compound 1 µM, first compound 0.00316 µM
[15] = second compound 1 µM, first compound 0.01 µM
[16] = second compound 1 µM, first compound 0.0316 µM
[17] = second compound 1 µM, first compound 0.1 µM
[18] = second compound 3.16 µM, first compound 0.00316 µM
[19] = second compound 3.16 µM, first compound 0.01 µM
[20] = second compound 3.16 µM, first compound 0.0316 µM
[21] = second compound 3.16 µM, first compound 0.1 µM
[22] = second compound 10 µM, first compound 0.00316 µM
[23] = second compound 10 µM, first compound 0.01 µM
[24] = second compound 10 µM, first compound 0.0316 µM
[25] = second compound 10 µM, first compound 0.1 µM
[26] = second compound 0.1 µM, first compound 0.316 µM
[27] = second compound 0.1 µM, first compound 1 µM
[28] = second compound 0.1 µM, first compound 3.16 µM
[29] = second compound 0.1 µM, first compound 10 µM
[30] = second compound 0.316 µM, first compound 0.316 µM
[31] = second compound 0.316 µM, first compound 1 µM
[32] = second compound 0.316 µM, first compound 3.16 µM
[33] = second compound 0.316 µM, first compound 10 µM
[34] = second compound 1 µM, first compound 0.316 µM
[35] = second compound 1 µM, first compound 1 µM
[36] = second compound 1 µM, first compound 3.16 µM
[37] = second compound 1 µM, first compound 10 µM
[38] = second compound 3.16 µM, first compound 0.316 µM
[39] = second compound 3.16 µM, first compound 1 µM
[40] = second compound 3.16 µM, first compound 3.16 µM
[41] = second compound 3.16 µM, first compound 10 µM
[42] = second compound 10 µM, first compound 0.316 µM
[43] = second compound 10 µM, first compound 1 µM
[44] = second compound 10 µM, first compound 3.16 µM
[45] = second compound 10 µM, first compound 10 µM

IC50 [1] [nM] | IC50 [2] [nM] | IC50 [3] [nM] | IC50 [4] [nM] | IC50 [5] [nM] | SMILES | viability, T/C [8] [%] | viability, T/C [9] [%] | viability, T/C [12] [%] | viability, T/C [13] [%] | viability, T/C [16] [%] | viability, T/C [17] [%] | viability, T/C [20] [%] | viability, T/C [21] [%] | viability, T/C [24] [%] | viability, T/C [25] [%] | viability, T/C [26] [%] | viability, T/C [27] [%] | viability, T/C [30] [%] | viability, T/C [31] [%] | viability, T/C [34] [%] | also measured
> 100 | > 100 | > 100 | > 100 | 76.5 | CC[C@@]1(O)C(=O)OCc2c1cc1n(c2=O)Cc2cc3c(CN(C)C)c(O)ccc3nc2-1 + Cc1ccccc1N=Nc1ccc(NC(=O)c2ccnn2C)c(C)c1 | 69.1 | 69.2 | 78.3 | 68.3 | 71.7 | 61.7 | 63.4 | 55.9 | 50.4 | 50.1 |  |  |  |  |  | viability, T/C (second compound 0.1 µM, first compound 0.000316 µM): 101%; viability, T/C (second compound 0.1 µM, first compound 0.001 µM): 106%; viability, T/C [6]: 89.4%; viability, T/C [7]: 73.3%; viability, T/C (second compound 0.316 µM, first compound 0.000316 µM): 108%; viability, T/C (second compound 0.316 µM, first compound 0.001 µM): 104%; viability, T/C [10]: 89.9%; viability, T/C [11]: 80.7%; viability, T/C (second compound 1 µM, first compound 0.000316 µM): 99.2%; viability, T/C (second compound 1 µM, first compound 0.001 µM): 110%; viability, T/C [14]: 96%; viability, T/C [15]: 79.8%; viability, T/C (second compound 3.16 µM, first compound 0.000316 µM): 94.5%; viability, T/C (second compound 3.16 µM, first compound 0.001 µM): 90.8%; viability, T/C [18]: 83.1%; viability, T/C [19]: 66.8%; viability, T/C (second compound 10 µM, first compound 0.000316 µM): 65.3%; viability, T/C (second compound 10 µM, first compound 0.001 µM): 61.3%; viability, T/C [22]: 65.6%; viability, T/C [23]: 59.6%
> 10000 | > 10000 | > 10000 | > 10000 | < 31.6 | CC(C)c1c(-c2ccccc2)nc2c(C#N)c[nH]n2c1=O + Cc1cncc(-c2nc(NCCc3c[nH]c4ccccc34)c3ncn(C(C)C)c3n2)c1 | 114 | 113 | 112 | 104 | 99.6 | 101 | 61.3 | 65.5 | 4.95 | 6.12 | 110 | 108 | 113 | 103 | 107 | viability, T/C [28]: 109%; viability, T/C [29]: 96.4%; viability, T/C [32]: 109%; viability, T/C [33]: 107%; viability, T/C [35]: 100%; viability, T/C [36]: 102%; viability, T/C [37]: 99.5%; viability, T/C [38]: 68.6%; viability, T/C [39]: 62.9%; viability, T/C [40]: 55.8%; viability, T/C [41]: 66.9%; viability, T/C [42]: 4.81%; viability, T/C [43]: 4.87%; viability, T/C [44]: 5.51%; viability, T/C [45]: 7.39%
1980 | 2150 | 1820 | 460 | < 31.6 | Nc1ccccc1NC(=O)c1ccc(CNC(=O)OCc2cccnc2)cc1 + Cc1cncc(-c2nc(NCCc3c[nH]c4ccccc34)c3ncn(C(C)C)c3n2)c1 | 118 | 115 | 126 | 116 | 109 | 106 | 72 | 69.9 | 4.97 | 4.48 | 115 | 80.9 | 116 | 87.5 | 107 | viability, T/C [28]: 28.6%; viability, T/C [29]: 2.58%; viability, T/C [32]: 30.9%; viability, T/C [33]: 2.84%; viability, T/C [35]: 76.5%; viability, T/C [36]: 25.1%; viability, T/C [37]: 2.17%; viability, T/C [38]: 55.5%; viability, T/C [39]: 36.5%; viability, T/C [40]: 10.7%; viability, T/C [41]: 0.49%; viability, T/C [42]: 2.94%; viability, T/C [43]: 3.5%; viability, T/C [44]: 0.48%; viability, T/C [45]: 0.4%

Continued, compound first:

SMILES | IC50 [1] [nM] | IC50 [2] [nM] | IC50 [3] [nM] | IC50 [4] [nM] | IC50 [5] [nM] | viability, T/C [8] [%] | viability, T/C [9] [%] | viability, T/C [12] [%] | viability, T/C [13] [%] | viability, T/C [16] [%] | viability, T/C [17] [%] | viability, T/C [20] [%] | viability, T/C [21] [%] | viability, T/C [24] [%] | viability, T/C [25] [%] | viability, T/C [26] [%] | viability, T/C [27] [%] | viability, T/C [30] [%] | viability, T/C [31] [%] | viability, T/C [34] [%] | also measured
Nc1ccn(C2OC(CO)C(O)C2(F)F)c(=O)n1 (stereo not given) + CC(CO)NC(=O)c1cc(-c2ccc(Cl)cc2)nn(-c2cnn(C)c2)c1=O | > 10000 | 9590 | > 10000 | > 10000 | 770 | 54.6 | 58.7 | 60.3 | 63.5 | 61.1 | 70.3 | 59.4 | 61.8 | 55.1 | 60.6 | 62.1 | 54 | 52.5 | 52.3 | 55.3 | viability, T/C [28]: 51.9%; viability, T/C [29]: 52.4%; viability, T/C [32]: 57.3%; viability, T/C [33]: 47.9%; viability, T/C [35]: 50.5%; viability, T/C [36]: 57.9%; viability, T/C [37]: 50.4%; viability, T/C [38]: 59.5%; viability, T/C [39]: 54.5%; viability, T/C [40]: 53.6%; viability, T/C [41]: 58.5%; viability, T/C [42]: 47.7%; viability, T/C [43]: 44.6%; viability, T/C [44]: 51.5%; viability, T/C [45]: 49.1%
Nc1ncn(C2CC(O)C(CO)O2)c(=O)n1 (stereo not given) + Cc1ccccc1N=Nc1ccc(NC(=O)c2ccnn2C)c(C)c1 | > 1000 | > 1000 | > 1000 | > 1000 | > 1000 | 97.2 | 98 | 96.8 | 98.9 | 106 | 91.8 | 85.9 | 90.8 | 60.9 | 66 | 99.2 | 90 | 85.8 | 81.6 | 86.2 | viability, T/C [6]: 103%; viability, T/C [7]: 109%; viability, T/C [10]: 97.5%; viability, T/C [11]: 97.2%; viability, T/C [14]: 95.4%; viability, T/C [15]: 92%; viability, T/C [35]: 84.9%; viability, T/C [18]: 83.3%; viability, T/C [19]: 87.2%; viability, T/C [38]: 78.5%; viability, T/C [39]: 79.8%; viability, T/C [22]: 63%; viability, T/C [23]: 70.5%; viability, T/C [42]: 63.4%; viability, T/C [43]: 68%
O=C(C=Cc1cccc(S(=O)(=O)Nc2ccccc2)c1)NO + Cc1cncc(-c2nc(NCCc3c[nH]c4ccccc34)c3ncn(C(C)C)c3n2)c1 | 2280 | 2570 | 2330 | 750 | < 31.6 | 122 | 110 | 103 | 116 | 113 | 101 | 76.3 | 63.8 | 7.33 | 7.26 | 106 | 75.6 | 93.8 | 79.6 | 98.9 | viability, T/C [28]: 39.8%; viability, T/C [29]: 2.43%; viability, T/C [32]: 44%; viability, T/C [33]: 2.11%; viability, T/C [35]: 77.2%; viability, T/C [36]: 39.9%; viability, T/C [37]: 1.72%; viability, T/C [38]: 63.1%; viability, T/C [39]: 46.8%; viability, T/C [40]: 26.2%; viability, T/C [41]: 0.97%; viability, T/C [42]: 4.94%; viability, T/C [43]: 2.69%; viability, T/C [44]: 1.35%; viability, T/C [45]: 0.35%
CC(CO)NC(=O)c1cc(-c2ccc(Cl)cc2)nn(-c2cnn(C)c2)c1=O (stereo not given) |  |  |  |  |  |  |  |  |  |  |  |  |  |  |  |  |  |  |  |  | viability, T/C (compound 0.316 µM): 116% [middle of 21 runs]; viability, T/C (compound 1 µM): 109% [middle of 20 runs]; IC50 (compound alone, run of 08/08/2022): > 10000 nM
Nc1ncn(C2CC(O)C(CO)O2)c(=O)n1 (stereo not given) |  |  |  |  |  |  |  |  |  |  |  |  |  |  |  |  |  |  |  |  | viability, T/C (compound 0.00316 µM): 107% and 102% and 97.1%; viability, T/C (compound 0.01 µM): 104% (2×) and 97.5%; viability, T/C (compound 0.0316 µM): 117% and 101% and 103%; viability, T/C (compound 0.1 µM): 102% and 105% and 98.2%; viability, T/C (compound 0.316 µM): 101% and 92.1% and 94.3%; viability, T/C (compound 1 µM): 89.7% and 90.5% and 96.5%; IC50 (curve of compound): > 1000 nM
